What all share (format): biochemical
One test deals with T1, human 11β-HSD1 (Homo sapiens, UniProt P28845).
T1 construct: expressed in transfected cells
Kind of test: Enzyme inhibitory activity assay, lysate of HEK293 cells stably expressing human 11β-HSD1, cortisol by competitive ELISA. The following applies: Table 1; cell lysate, 100 nmol/L cortisone, NADPH, 37° C. 1 hour; read-out: in vitro assay (IC50 uM) h HSD1. On the procedure:
(§1) 1. Human 11β-HSD1-, Human 11β-HSD2- and Mouse 11β-HSD1-Gene Clonings and Establishment of Stably Expressing Cells
(§2) Human 11β-HSD1- and human 11β-HSD2-expressing vectors were transfected into human kidney-derived cell line, HEK293 cells, using a transfection reagent, jet PEI (Funakoshi). Mouse 11β-HSD1 was transfected to Chinese hamster ovary-derived cell line, CHO-K1 cells. Selection was conducted with 200-400 μg/mL of zeocine (Invitrogen) to provide stably expressing-cell clones. The stably expressing cells were suspended in buffer solution A (20 mmol/L Tris-HCl, pH 7.4, 250 mmol/L sucrose, 1 mmol/L EGTA, 1 mmol/L EDTA, 1 mmol/L MgCl2), sonicated, and then stored at −80° C.
(§3) 2. Assay of Enzyme Inhibitory Activity
(§4) An enzymatic reaction was conducted using a polystyrene 96-well plate. Each well was added with 1 μL of a test agent dissolved in DMSO and then diluted (0.003 to 3 mmol/L), and further added with 10 μL of cell lysate diluted to a concentration of 0.1 mg/mL to 0.4 mg/mL. Next, 90 μL of buffer solution A containing substrate (100 nmol/L cortisone or cortisol) and coenzyme (400 μmol/L NADPH or NAD+) was added and the mixture was incubated at 37° C. for 1 hour. The enzymatic reaction was stopped by treating at 95° C. for 3 minutes. Cortisol that was present in the reaction solution was determined by a competitive ELISA shown below.
(§5) Anti-rabbit IgG antibody (Chemi-con) diluted to 2 μg/mL with carbonate buffer solution (pH 9.6) was added in 100 μL each to a 96-well immuno plate (Nunc) and immobilized by an incubation at 4° C. overnight. […] After washed three times with buffer solution B containing 0.05% Tween 20, the plates were allowed to develop color by adding 100 μL, of color reagent, TMB (Moss). The color reaction was stopped by 25 μL of 1 mol/L sulfuric acid and the absorbance was determined at 450 nm with a microplate reader (Molecular Device, VersaMax).
Background: In an ELISA, binding on a coated surface is turned into a signal by an enzyme label.

The next test deals with T2, human 11β-HSD2 (Homo sapiens, UniProt P80365).
T2 construct: expressed in transfected cells
T2 sequence (P80365 1-405): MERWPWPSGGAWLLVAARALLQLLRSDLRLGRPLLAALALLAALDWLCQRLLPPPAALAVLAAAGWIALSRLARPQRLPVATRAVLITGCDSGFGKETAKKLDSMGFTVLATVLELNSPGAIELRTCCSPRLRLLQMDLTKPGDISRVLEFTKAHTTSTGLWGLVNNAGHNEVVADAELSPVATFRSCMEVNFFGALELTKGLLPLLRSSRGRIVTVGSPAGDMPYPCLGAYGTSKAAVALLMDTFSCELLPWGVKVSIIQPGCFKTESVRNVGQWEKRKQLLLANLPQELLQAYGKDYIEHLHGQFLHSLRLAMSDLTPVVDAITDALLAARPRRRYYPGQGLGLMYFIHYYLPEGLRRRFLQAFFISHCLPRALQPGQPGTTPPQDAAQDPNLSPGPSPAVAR
In words: Enzyme inhibitory activity assay, lysate of HEK293 cells stably expressing human 11β-HSD2, cortisol by competitive ELISA. As to conditions: Table 1; cell lysate, 100 nmol/L cortisol, NAD+, 37° C. 1 hour; read-out: in vitro assay (IC50 uM) h HSD2. On the procedure:
as §1
Human 11β-HSD1-, human 11β-HSD2-, and mouse 11β-HSD1-gene clonings were conducted using as a template a reverse transcription product of human-liver RNA, human-kidney RNA (CELL APPLICATIONS), and mouse-kidney RNA respectively, by means of PCR cloning with reference to nucleotide sequences of Genbank Accession Nos. NM_005525, NM_000196, and NM_008288. The obtained PCR products of about 0.9 kbp, 1.2 kbp, and 0.9 kbp were subcloned into an expression vector pcDNA3.1+/Zeo (Invitrogen).
as §2, §3, §4
Anti-rabbit IgG antibody (Chemi-con) diluted to 2 μg/mL with carbonate buffer solution (pH 9.6) was added in 100 μL each to a 96-well immuno plate (Nunc) and immobilized by an incubation at 4° C. overnight. 50 μL of enzymatic reaction solution was put onto the plates, and further, anti-cortisol antibody (Cosmo Bio) and HRP-labeled cortisol (Cosmo Bio), diluted with buffer solution B (25 mmol/L Tris-HCl pH 7.4, 137 mmol/L NaCl, 2.68 mmol/L KCl), were added in 50 μL respectively and incubated at 4° C. overnight. After washed three times with buffer solution B containing 0.05% Tween 20, the plates were allowed to develop color by adding 100 μL, of color reagent, TMB (Moss). The color reaction was stopped by 25 μL of 1 mol/L sulfuric acid and the absorbance was determined at 450 nm with a microplate reader (Molecular Device, VersaMax).
The values of human 11β-HSD1, human 11β-HSD2, and mouse 11β-HSD1 activities were subtracted from 100, and the resultant values were regarded as the respective 11βHSD inhibition rates of example compounds. […] The comparison of human 11β-HSD1 and human 11β-HSD2 inhibiting activities is shown in Table 1, and the comparison of human 11β-HSD1 and mouse 11β-HSD1 inhibiting activities is shown in Table 2.

Another test has as its target T3, mouse 11β-HSD1 (Mus musculus, UniProt P50172).
T3 construct: expressed in transfected cells
In words: Enzyme inhibitory activity assay, lysate of CHO-K1 cells stably expressing mouse 11β-HSD1, cortisol by competitive ELISA. The following applies: Table 2; cell lysate, 100 nmol/L cortisone, NADPH, 37° C. 1 hour; read-out: in vitro assay (IC50 uM) m HSD1. On the procedure: as §1, §2, §3, §4, §5

Consider 22 compounds from US8236789B2, “1-adamantyl azetidin-2-one derivatives and drugs containing same” (Kowa Company, Ltd., priority 2008, dated 2012).

T1 sequence (P28845 whole entry): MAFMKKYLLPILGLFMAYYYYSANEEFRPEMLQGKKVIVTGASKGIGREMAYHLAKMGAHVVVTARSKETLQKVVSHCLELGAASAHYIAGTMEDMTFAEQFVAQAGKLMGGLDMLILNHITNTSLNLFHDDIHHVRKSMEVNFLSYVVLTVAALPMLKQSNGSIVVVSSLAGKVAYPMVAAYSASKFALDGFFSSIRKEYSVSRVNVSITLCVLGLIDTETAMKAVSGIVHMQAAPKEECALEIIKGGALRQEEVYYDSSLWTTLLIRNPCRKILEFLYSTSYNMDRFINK
T3 sequence (P50172 whole entry): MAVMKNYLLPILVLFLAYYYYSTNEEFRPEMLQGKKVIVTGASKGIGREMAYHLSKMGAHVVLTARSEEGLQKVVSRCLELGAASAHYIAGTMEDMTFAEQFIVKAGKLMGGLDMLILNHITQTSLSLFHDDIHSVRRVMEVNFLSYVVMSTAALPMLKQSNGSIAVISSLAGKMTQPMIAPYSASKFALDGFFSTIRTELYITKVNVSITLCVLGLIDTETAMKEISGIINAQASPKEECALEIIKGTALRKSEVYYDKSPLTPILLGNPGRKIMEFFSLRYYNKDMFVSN

Turning to `CC1(C)C(=O)N(C2C3CC4CC(C3)CC2C4)C1c1ccccc1` (centres unmarked) [Example 1, 1-(adamantan-2-yl)-3,3-dimethyl-4-phenylazetidin-2-one], the 50% inhibitory concentration (IC50) (in general, the point on the concentration scale where inhibition reaches its midpoint) was 0.013 µM on human 11β-HSD1, 3 to 30 µM at human 11β-HSD2 and 0.077 µM on mouse 11β-HSD1.
With `CC1(C)C(=O)N(C2C3CC4CC(C3)CC2C4)C1c1ccc(Cl)cc1` (centres unmarked) [Example 22, 1-(adamantan-2-yl)-3,3-dimethyl-4-(4-chlorophenyl)azetidin-2-one], the 50% inhibitory concentration (IC50) at human 11β-HSD1 was 0.0095 µM; at human 11β-HSD2 it was 15 µM; on mouse 11β-HSD1, 0.66 µM.
For the compound `COc1ccc(C2N(C3C4CC5CC(C4)CC3C5)C(=O)C2(C)C)cc1` (centres unmarked) [Example 23, 1-(adamantan-2-yl)-3,3-dimethyl-4-(4-methoxyphenyl)azetidin-2-one], the results for the IC50 at human 11β-HSD1 and on human 11β-HSD2 were 0.01 µM and above 30 µM, respectively.
Regarding `CC1(C)C(=O)N(C2C3CC4CC(C3)CC2C4)C1c1cccc(F)c1F` (centres unmarked) [Example 24, 1-(adamantan-2-yl)-3,3-dimethyl-4-(2,3-difluorophenyl)azetidin-2-one], the IC50 on human 11β-HSD1 is 0.011 µM; on human 11β-HSD2, above 30 µM; at mouse 11β-HSD1 it was 0.1 µM.
With `CC1(C)C(=O)N(C2C3CC4CC(C3)CC2C4)C1c1ccc(Cl)c(Cl)c1` (centres unmarked) [Example 26, 1-(adamantan-2-yl)-3,3-dimethyl-4-(3,4-dichlorophenyl)azetidin-2-one], the IC50 at human 11β-HSD1 is 0.013 µM; on human 11β-HSD2 it was above 30 µM; on mouse 11β-HSD1 it was 0.46 µM.
Regarding `CC1(C)C(=O)N(C2C3CC4CC(C3)CC2C4)C1c1ccc(F)c(F)c1` (centres unmarked) [Example 27, 1-(adamantan-2-yl)-3,3-dimethyl-4-(3,4-difluorophenyl)azetidin-2-one], the 50% inhibitory concentration (IC50) at human 11β-HSD1 turned out to be 0.017 µM; at human 11β-HSD2 it was 8.8 µM.
As to `CC1(C)C(=O)N(C2C3CC4CC(C3)CC2C4)C1c1ccc(F)c(Cl)c1` (centres unmarked) [Example 29, 1-(adamantan-2-yl)-3,3-dimethyl-4-(3-chloro-4-fluorophenyl)azetidin-2-one], the half-inhibitory concentration (IC50) at human 11β-HSD1 is 0.011 µM; at human 11β-HSD2, above 30 µM; on mouse 11β-HSD1, 0.59 µM.
For the compound `COc1ccccc1C1N(C2C3CC4CC(C3)CC2C4)C(=O)C1(C)C` (centres unmarked) [Example 33, 1-(adamantan-2-yl)-3,3-dimethyl-4-(2-methoxyphenyl)azetidin-2-one], the IC50 was 0.0067 µM on human 11β-HSD1, 6.7 µM on human 11β-HSD2 and 0.072 µM on mouse 11β-HSD1.
`CC1(C)C(=O)N(C2C3CC4CC(C3)CC2C4)C1c1cc(F)cc(F)c1F` (centres unmarked) [Example 35, 1-(adamantan-2-yl)-3,3-dimethyl-4-(2,3,5-trifluorophenyl)azetidin-2-one]: the IC50 on human 11β-HSD1 was 0.053 µM; at human 11β-HSD2, above 30 µM; on mouse 11β-HSD1 it was 0.61 µM.
As for `CC(C)c1ccc(C2N(C3C4CC5CC(C4)CC3C5)C(=O)C2(C)C)cc1` (centres unmarked) [Example 37, 1-(adamantan-2-yl)-3,3-dimethyl-4-(4-isopropylphenyl)azetidin-2-one], the figures for the IC50 at human 11β-HSD1 and at human 11β-HSD2 were 0.026 µM and 14 µM, respectively.
Consider `CC(C)(C)c1ccc(C2N(C3C4CC5CC(C4)CC3C5)C(=O)C2(C)C)cc1` (centres unmarked) [Example 38, 1-(adamantan-2-yl)-3,3-dimethyl-4-(4-t-butylphenyl)azetidin-2-one], for which the results for the concentration for half-maximal inhibition (IC50) at human 11β-HSD1 and at human 11β-HSD2 were 0.079 µM and 3 to 30 µM, respectively.
On to `CC1(C)C(=O)N(C2C3CC4CC(C3)CC2C4)C1c1ccccc1F` (centres unmarked) [Example 39, 1-(adamantan-2-yl)-3,3-dimethyl-4-(2-fluorophenyl)azetidin-2-one], for which the 50% inhibitory concentration (IC50) at human 11β-HSD1 was 0.0034 µM; at human 11β-HSD2, 3 to 30 µM; at mouse 11β-HSD1, 0.055 µM.
Take `COc1ccc(C2N(C3C4CC5CC(C4)CC3C5)C(=O)C2(C)C)c(F)c1` (centres unmarked) [Example 40, 1-(adamantan-2-yl)-3,3-dimethyl-4-(2-fluoro-4-methoxyphenyl)azetidin-2-one]: the 50% inhibitory concentration (IC50) at human 11β-HSD1 is 0.0059 µM; at human 11β-HSD2, above 30 µM; at mouse 11β-HSD1, 0.34 µM.
`CC1(C)C(=O)N(C2C3CC4CC(C3)CC2C4)C1c1ccc(OC(F)(F)F)cc1` (centres unmarked) [Example 42, 1-(adamantan-2-yl)-3,3-dimethyl-4-(4-trifluoromethoxyphenyl)azetidin-2-one]: the half-inhibitory concentration (IC50) was 0.006 µM at human 11β-HSD1 and 0.69 µM at mouse 11β-HSD1.
As to `CC1(C)C(=O)N(C2C3CC4CC(C3)CC2C4)C1c1cccc2ccccc12` (centres unmarked) [Example 45, 1-(adamantan-2-yl)-3,3-dimethyl-4-(naphthalen-1-yl)azetidin-2-one], the results for the half-inhibitory concentration (IC50) at human 11β-HSD1 and on mouse 11β-HSD1 were 0.0081 µM and 0.0035 µM, respectively.
As to `CC1(C)C(=O)N([C@H]2C3CC4CC2C[C@](O)(C4)C3)C1c1cccc(Cl)c1Cl` (stereo partly drawn) [Example 46, trans-1-(5-hydroxyadamantan-2-yl)-3,3-dimethyl-4-(2,3-dichlorophenyl)azetidin-2-one], the half-maximal inhibitory concentration (IC50) was determined as 0.0081 µM at human 11β-HSD1 and 0.029 µM at mouse 11β-HSD1.
For `CC1(C)C(=O)N([C@H]2C3CC4CC2C[C@](O)(C4)C3)C1c1cccc2ccccc12` (stereo partly drawn) [Example 47, trans-1-(5-hydroxyadamantan-2-yl)-3,3-dimethyl-4-(naphthalen-1-yl)azetidin-2-one] the same measures were 0.0075 µM and 0.0056 µM.
On to `COc1ccc(C2N([C@H]3C4CC5CC3C[C@](O)(C5)C4)C(=O)C2(C)C)c2ccccc12` (stereo partly drawn) [Example 48, trans-1-(5-hydroxyadamantan-2-yl)-3,3-dimethyl-4-(4-methoxynaphthalen-1-yl)azetidin-2-one], for which the figures for the half-maximal inhibitory concentration (IC50) at human 11β-HSD1 and at mouse 11β-HSD1 were 0.0088 µM and 0.33 µM, respectively.
As to `CC1(C)C(=O)N([C@H]2C3CC4CC2C[C@](F)(C4)C3)C1c1cccc(Cl)c1Cl` (stereo partly drawn) [Example 52, trans-1-(5-fluoroadamantan-2-yl)-3,3-dimethyl-4-(2,3-dichlorophenyl)azetidin-2-one], the figures for the IC50 at human 11β-HSD1 and at mouse 11β-HSD1 were 0.0046 µM and 0.027 µM, respectively.
For `CC1(C)C(=O)N(C2C3CC4CC(C3)CC2C4)C1c1cccc(Cl)c1` (centres unmarked) [Example 53, 1-(adamantan-2-yl)-3,3-dimethyl-4-(3-chlorophenyl)azetidin-2-one] the same measures were 0.0039 µM and 0.025 µM.
For `CSc1ccc(C2N(C3C4CC5CC(C4)CC3C5)C(=O)C2(C)C)cc1` (centres unmarked) [Example 55, 1-(adamantan-2-yl)-3,3-dimethyl-4-[4-(methylthio)phenyl]azetidin-2-one] the same measures were 0.0039 µM and 0.87 µM.
In the same order, the values of `CC1(C)C(=O)N(C2C3CC4CC(C3)CC2C4)C1c1cccc2c1OCC=CC2` (centres unmarked) [Example 67, 1-(adamantan-2-yl)-4-(2,5-dihydrobenzo[b]oxepin-9-yl)-3,3-dimethylazetidin-2-one] are 0.065 µM and 0.029 µM.
